Measured values taken from US20220047609A1, “VAGINAL INSERTED ESTRADIOL PHARMACEUTICAL COMPOSITIONS AND METHODS” (THERAPEUTICSMD, INC., priority 2012, published 2022).

How the values were obtained:
[1] = solubility of estradiol in the solubilizing agent; * denotes literature reference; cited from earlier work
[2] = Estradiol solubility in solubilizing agents (HPLC); type: physicochemical; conditions: solubility of estradiol in the solubilizing agent, equilibrated three days
Experimental: Initial solubility was measured by dissolving micronized estradiol into various solubilizing agents until the estradiol was saturated (the estradiol/solubilizing agent equilibrated for three days), filtering the undissolved estradiol, and analyzing the resulting pharmaceutical composition for estradiol concentration by HPLC.

dyspareunia = conditions: cited from earlier work

Question: For `CC(O)CO` (stereo not shown) [Propylene Glycol], which “Solubility (mg/g)” value [1] is on record?
Answer: 75* mg/g

Question: Which “Solubility” value [2] does the source give for `CCOCCOCCO` [TRANSCUTOL HP, 2-(2-ethoxyethoxy)ethanol] here?
Answer: 141 mg/g

Question: With `OCCOc1ccc(/C(=C(/CCCl)c2ccccc2)c2ccccc2)cc1` [ospemifene] as the molecule, how does the “vaginal discharge, frequency relative to the placebo group” value (dyspareunia; 12-week study) read?
Answer: more than 6 times

Question: What about the “week until which statistically significant improvements of dyspareunia were not observed” value (dyspareunia; human, in vivo) of the same molecule?
Answer: 12 week
